Reference: the supplement of paper PMC13380429

Key:
Conditions in all cases: 72 h
[1] = test system: Vero E6; assay: cell viability relative to DMSO; higher = less toxic
[2] = test system: Calu-3; assay: as above
[3] = test system: Caco-2; assay: as above
[4] = test system: HepG2; assay: as above
[5] = test system: U2OS; assay: as above
[6] = test system: Vero E6; assay: drug sensitivity score (DSS) for viability; higher = more toxic; extreme values may be limits of the assay
[7] = test system: Calu-3; assay: as above
[8] = test system: Caco-2; assay: as above
[9] = test system: HepG2; assay: as above
[10] = test system: U2OS; assay: as above
[11] = test system: Vero E6; assay: relative viability EC50 (midpoint between 100% and the lowest measured viability); higher = less toxic
[12] = test system: Calu-3; assay: as above
[13] = test system: Caco-2; assay: as above
[14] = test system: HepG2; assay: as above
[15] = test system: U2OS; assay: as above

| Structure (SMILES) | cell viability ([1]; 1 nM) [%] | cell viability ([1]; 10 nM) [%] | cell viability ([1]; 100 nM) [%] | cell viability ([1]; 1000 nM) [%] | cell viability ([1]; 10000 nM) [%] | cell viability ([2]; 1 nM) [%] | cell viability ([2]; 10 nM) [%] | cell viability ([2]; 100 nM) [%] | cell viability ([2]; 1000 nM) [%] | cell viability ([2]; 10000 nM) [%] | cell viability ([3]; 1 nM) [%] | cell viability ([3]; 10 nM) [%] | cell viability ([3]; 100 nM) [%] | cell viability ([3]; 1000 nM) [%] | cell viability ([3]; 10000 nM) [%] | cell viability ([4]; 1 nM) [%] | cell viability ([4]; 10 nM) [%] | cell viability ([4]; 100 nM) [%] | cell viability ([4]; 1000 nM) [%] | cell viability ([4]; 10000 nM) [%] | cell viability ([5]; 1 nM) [%] | cell viability ([5]; 10 nM) [%] | cell viability ([5]; 100 nM) [%] | cell viability ([5]; 1000 nM) [%] | cell viability ([5]; 10000 nM) [%] | drug sensitivity score [6] | drug sensitivity score [7] | drug sensitivity score [8] | drug sensitivity score [9] | drug sensitivity score [10] | relative viability EC50 [11] [µM] | relative viability EC50 [12] [µM] | relative viability EC50 [13] [µM] | relative viability EC50 [14] [µM] | relative viability EC50 [15] [µM] |
| --- | --- | --- | --- | --- | --- | --- | --- | --- | --- | --- | --- | --- | --- | --- | --- | --- | --- | --- | --- | --- | --- | --- | --- | --- | --- | --- | --- | --- | --- | --- | --- | --- | --- | --- | --- |
| COc1cc2c(Oc3ccc4[nH]c(C)cc4c3F)ccnc2cc1OCC1(N)CC1 [anlotinib] | 91.2 | 98.6 | 97 | 95.2 | 84.4 | 94.8 | 93.4 | 99.3 | 100 | 84.5 | 91.7 | 93.8 | 94.4 | 87.4 | 76.2 | 106 | 99.6 | 101 | 103 | 59.2 | 95.1 | 102 | 96.9 | 99.4 | 54.7 | 0.5 | 0.2 | 1.8 | 1.8 | 2.4 | > 10 | > 10 | > 10 |  |  |
| O[C@H]1CC[C@H](Nc2ncc3nc(Nc4c(F)cc(F)cc4F)n([C@H]4CCOC4)c3n2)CC1 [CC-930] | 98.5 | 97 | 98.3 | 93.7 | 73.4 | 101 | 100 | 104 | 87.5 | 81.7 | 99.1 | 102 | 102 | 96.7 | 86.1 | 104 | 102 | 93.5 | 97.1 | 89.6 | 97.3 | 104 | 95 | 96.7 | 91.1 | 2 | 1.6 | 0.4 | 0 | 0 |  | > 10 | > 10 | > 10 | > 10 |
| CN(C)C(=O)COC(=O)Cc1ccc(OC(=O)c2ccc(NC(=N)N)cc2)cc1 [camostat-mesilate] | 110 | 99.7 | 101 | 103 | 106 | 100 | 106 | 98.2 | 110 | 103 | 102 | 98.9 | 104 | 105 | 108 |  |  |  |  |  | 97.8 | 102 | 94.2 | 104 | 102 | 0 | 0 | 0 |  | 0 | > 10 | > 10 | > 10 |  | > 10 |
| O=c1ccc2ccc(OCCCCN3CCN(c4cccc5sccc45)CC3)cc2[nH]1 [brexpiprazole] | 99.1 | 97.5 | 94.5 | 94.5 | 94.3 | 95.5 | 85 | 96 | 91.6 | 104 | 91.7 | 96.7 | 87.3 | 98.1 | 87.5 | 100 | 96.3 | 96 | 92 | 56.8 | 97.6 | 99 | 95.6 | 101 | 86.6 | 0 | 0 | 0 | 3.5 | 0.1 | > 10 | > 10 | > 10 |  | > 10 |
| Nc1ccncc1 [dalfampridine] | 107 | 102 | 101 | 101 | 98.9 | 102 | 104 | 90.9 | 99 | 100 | 102 | 108 | 99.1 | 106 | 96 |  |  |  |  |  |  |  |  |  |  | 0 | 0 | 0 |  |  | > 10 | > 10 | > 10 |  |  |
| CC(C(=O)O)c1cccc(Oc2ccccc2)c1 (stereo unspecified) [fenoprofen] | 101 | 94 | 95.3 | 88.7 | 112 | 98.1 | 112 | 111 | 103 | 103 | 98.4 | 93.5 | 98.7 | 101 | 108 |  |  |  |  |  | 96.7 | 99.9 | 97.5 | 103 | 105 | 0 | 0 | 0 |  | 0 | > 10 | > 10 | > 10 |  | > 10 |
| COc1cc2c(cc1OC)C(c1ccc(N)cc1)=NNC(=O)C2 [CFM-2] | 98.7 | 93.8 | 96.6 | 96.1 | 100 | 95.5 | 100 | 98.3 | 112 | 101 | 93.1 | 102 | 98.7 | 95.5 | 98 | 109 | 97.2 | 104 | 113 | 71 | 97.1 | 98.2 | 95.4 | 95.5 | 87.1 | 0 | 0 | 0 | 0.8 | 0 | > 10 | > 10 | > 10 |  | > 10 |
| O=C1c2c(O)cccc2C([C@@H]2O[C@H](CO)[C@@H](O)[C@H](O)[C@H]2O)c2cc(CO)cc(O)c21 (stereo partly specified) [aloin] |  |  |  |  |  | 104 | 95.7 | 103 | 104 | 97.3 | 92.1 | 104 | 96.6 | 93.9 | 99.4 | 106 | 94.1 | 103 | 94.7 | 103 | 96.9 | 100 | 92.9 | 97.4 | 92.7 |  | 0 | 0 | 0 | 0 |  | > 10 | > 10 | > 10 | > 10 |
| CCCN1C[C@H](CSC)C[C@@H]2c3cccc4[nH]cc(c34)C[C@H]21 [pergolide] | 95.9 | 96.5 | 95.6 | 90 | 96.4 | 89.8 | 105 | 104 | 99.7 | 101 | 93.2 | 93 | 99.5 | 96.4 | 100 |  |  |  |  |  | 97.3 | 102 | 100 | 102 | 97.3 | 0 | 0 | 0 |  | 0 | > 10 | > 10 | > 10 |  | > 10 |
| CC1=C(CC(=O)O)c2cc(F)ccc2/C1=C\c1ccc(S(C)(=O)=O)cc1 [exisulind] | 104 | 96.2 | 87.8 | 110 | 94.8 | 95.6 | 102 | 103 | 97.6 | 112 | 96.4 | 104 | 91.6 | 84.6 | 94.8 | 106 | 95.3 | 95.4 | 96.7 | 74.8 | 103 | 94.7 | 100 | 97.5 | 100 | 0 | 0 | 2.2 | 1.5 | 0 | > 10 | > 10 | > 10 |  | > 10 |
| c1ccc(CNCc2ccc(CN3CCCNCCNCCCNCC3)cc2)nc1 [AMD-3465] |  |  |  |  |  | 102 | 97.5 | 94.1 | 101 | 115 | 105 | 100 | 102 | 100 | 96.2 | 102 | 101 | 101 | 103 | 97.3 | 102 | 99.3 | 101 | 99 | 103 |  | 0 | 0 | 0 | 0 |  | > 10 | > 10 | > 10 | > 10 |
| O=C(O)c1ccc2nc(-c3cc(Cl)cc(Cl)c3)oc2c1 [tafamidis-meglumine] |  |  |  |  |  | 97.6 | 95.8 | 94.7 | 93.1 | 99.2 | 103 | 88 | 102 | 90.2 | 103 | 103 | 102 | 99.5 | 99.6 | 96 | 100 | 101 | 101 | 97.6 | 100 |  | 0 | 0 | 0 | 0 |  | > 10 | > 10 | > 10 | > 10 |
| CC(=O)NC1N=C(c2ccccc2)c2ccccc2NC1=O (stereo unspecified) | 98.5 | 96.5 | 99 | 93.7 | 108 | 112 | 101 | 101 | 101 | 95.1 | 103 | 97.7 | 93.9 | 101 | 103 |  |  |  |  |  | 101 | 94.6 | 95.5 | 95.3 | 96.9 | 0 | 0 | 0 |  | 0 | > 10 | > 10 | > 10 |  | > 10 |
| O=C(O)CCC(=O)Nc1ccc(S(=O)(=O)Nc2nccs2)cc1 [succinylsulfathiazole] | 97.8 | 97.3 | 98.7 | 92.1 | 112 | 94 | 96.2 | 96.1 | 112 | 108 | 93.9 | 100 | 89.6 | 104 | 102 |  |  |  |  |  | 95.3 | 100 | 95.7 | 99.9 | 104 | 0 | 0 | 0 |  | 0 | > 10 | > 10 | > 10 |  | > 10 |
| CCCOc1ccc(Br)cc1-c1cc(-c2ccc(Cl)cc2)[nH]c1-c1ccncc1 | 95.6 | 102 | 99.7 | 98 | 85.7 | 99.6 | 96.3 | 103 | 94.2 | 103 | 95.3 | 95.3 | 93.6 | 100 | 84.8 | 104 | 97.7 | 96.1 | 101 | 65.9 | 104 | 106 | 104 | 97.5 | 98.6 | 0.4 | 0 | 0.2 | 1.5 | 0 | > 10 | > 10 | > 10 |  | > 10 |
| CCOCCn1c(C2CCN(CCc3ccc(C(C)(C)C(=O)O)cc3)CC2)nc2ccccc21 [bilastine] |  |  |  |  |  | 98.1 | 106 | 93.5 | 97.8 | 99.5 | 102 | 87.5 | 85.6 | 92.5 | 87.8 | 94.3 | 96 | 104 | 97.6 | 100 | 96.6 | 98.2 | 103 | 103 | 95.7 |  | 0 | 3.1 | 0 | 0 |  | > 10 | > 10 | > 10 | > 10 |
